Data taken from article PMC12441834, “Highly Potent and Subtype-Selective Sperm-Specific Potassium Channel SLO3 Inhibitors Display High Tissue Exposure in the Murine Female Reproductive Tract” (ACS Pharmacology & Translational Science, 2025).
Values joined by “and” are separate entries in the source; they are usually repeats but may differ in a detail not shown here. Equal values may be shown once.

Experiments:
[1] = system: human sperm hyperactivated motility; assay: Human sperm motility by CASA; format: cell-based; settings: for inhibition of human sperm hyperactivated motility, incubation: 10 μM during 2 h in capacitation media; for inhibition of human sperm hyperactivated motility, acute / inhibition at 10 µM: 10 μM for 1 min after 2 h capacitation; for effect on progressive motility of human sperm / effect on total motility of human sperm: 10 μM, acute; for inhibition at 10 µM: Homo sapiens, Sperm, read-out: inhibition of human sperm hyperactivated motility, acute
Method: Human sperm samples were obtained by masturbation from deidentified patients after 3 to 5 days of abstinence. The Washington University Fertility and Reproductive Medicine Center confirmed that they met normal semen parameters according to the World Health Organization (≥15 million sperm per mL, ≥40% total motility, ≥32% progressive motility). Samples were allowed to liquefy for 1 h at room temperature. Sperm were purified by the swim-up method as previously described. , Briefly, within 2 h of production, sperm were allowed to swim up in noncommercial human tubular fluid medium (HTF; 98 mM NaCl, 4.7 mM KCl, 0.4 mM KH2PO4, 2 mM CaCl2, 0.2 mM MgSO4, 20 mM HEPES, 3 mM glucose, 21 mM lactic acid, 0.3 mM sodium pyruvate, pH adjusted to 7.4 with NaOH, 285 mmol/kg osmolarity measured with a VAPRO Vapor Pressure Osmometer 5600, ELITechGroup, Belgium) for 1 h at 37 °C without CO2.
Human sperm collected by swim-up were incubated in capacitating media (HTF + 5 mg/mL of BSA + 25 mM NaHCO3 for 2 h). After this incubation hyperactivated motility was measured by computer-assisted sperm analysis (CASA) as previously described. Briefly, 3 μL of sperm suspension was loaded in a 20-μm Leja standard count four-chamber slide. Motility was measured with a HTR-CEROS II v.1.7 (Hamilton-Thorne Research). Sperm were classified as hyperactivated if they met the following criteria: curvilinear velocity (VCL) > 150 μm/s, lateral head displacement (ALH) > 7.0 μm, and linearity coefficient (LIN) < 50%. For acute inhibition experiments, 10 μM of our compound of interest was added for 1 min prior to recording motility. For inhibitor incubation experiments, the compound of interest or DMSO was added during the 2 h incubation in capacitating media.

[2] = target: Serotonin (5-Hydroxytryptamine) 5-HT2B (Homo sapiens, UniProt P41595); assay: LeadProfilingScreen radioligand binding
[3] = system: Imidazoline I2, Central; assay: LeadProfilingScreen radioligand binding; set-up: species or system rat
[4] = target: Histamine H1 (Homo sapiens, UniProt P35367); assay: LeadProfilingScreen radioligand binding
[5] = target: Neuropeptide Y Y1 (Homo sapiens, UniProt P25929); assay: LeadProfilingScreen radioligand binding
[6] = target: Prostanoid EP4 (Homo sapiens, UniProt P35408); assay: LeadProfilingScreen radioligand binding
[7] = target: Endothelin ETB (Homo sapiens, UniProt P24530); assay: LeadProfilingScreen radioligand binding
[8] = target: Dopamine D4.4 (Homo sapiens, UniProt P21917); assay: LeadProfilingScreen radioligand binding
[9] = system: Calcium Channel L-Type, Dihydropyridine; assay: LeadProfilingScreen radioligand binding; set-up: species or system rat
[10] = system: GABAA, Muscimol, Central; assay: LeadProfilingScreen radioligand binding; set-up: species or system rat
[11] = target: Epidermal Growth Factor (EGF) (Homo sapiens, UniProt P00533); assay: LeadProfilingScreen radioligand binding
[12] = target: Transporter, Dopamine (DAT) (Homo sapiens, UniProt Q01959); assay: LeadProfilingScreen radioligand binding
Transporter, Dopamine (DAT), sequence (Q01959 whole entry): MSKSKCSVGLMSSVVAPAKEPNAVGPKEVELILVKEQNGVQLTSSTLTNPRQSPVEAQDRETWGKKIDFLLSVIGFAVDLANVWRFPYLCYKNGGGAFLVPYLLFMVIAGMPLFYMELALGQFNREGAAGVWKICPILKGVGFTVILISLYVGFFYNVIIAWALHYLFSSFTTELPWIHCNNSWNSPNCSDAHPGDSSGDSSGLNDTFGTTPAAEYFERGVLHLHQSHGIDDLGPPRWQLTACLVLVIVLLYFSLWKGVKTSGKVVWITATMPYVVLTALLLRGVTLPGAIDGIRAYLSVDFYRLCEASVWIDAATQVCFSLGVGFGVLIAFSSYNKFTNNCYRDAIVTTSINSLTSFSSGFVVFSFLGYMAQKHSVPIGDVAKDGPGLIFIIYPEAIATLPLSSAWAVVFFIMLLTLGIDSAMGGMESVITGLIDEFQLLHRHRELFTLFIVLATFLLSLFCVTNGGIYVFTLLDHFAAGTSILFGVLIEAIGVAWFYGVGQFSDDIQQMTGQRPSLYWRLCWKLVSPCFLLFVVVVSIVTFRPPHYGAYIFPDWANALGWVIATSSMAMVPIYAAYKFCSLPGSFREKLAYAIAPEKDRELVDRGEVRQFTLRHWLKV

[13] = target: Muscarinic M3 (Homo sapiens, UniProt P20309); assay: LeadProfilingScreen radioligand binding
[14] = target: Serotonin (5-Hydroxytryptamine) 5-HT3 (Homo sapiens, UniProt P46098); assay: LeadProfilingScreen radioligand binding
Serotonin (5-Hydroxytryptamine) 5-HT3, sequence (P46098 24-478): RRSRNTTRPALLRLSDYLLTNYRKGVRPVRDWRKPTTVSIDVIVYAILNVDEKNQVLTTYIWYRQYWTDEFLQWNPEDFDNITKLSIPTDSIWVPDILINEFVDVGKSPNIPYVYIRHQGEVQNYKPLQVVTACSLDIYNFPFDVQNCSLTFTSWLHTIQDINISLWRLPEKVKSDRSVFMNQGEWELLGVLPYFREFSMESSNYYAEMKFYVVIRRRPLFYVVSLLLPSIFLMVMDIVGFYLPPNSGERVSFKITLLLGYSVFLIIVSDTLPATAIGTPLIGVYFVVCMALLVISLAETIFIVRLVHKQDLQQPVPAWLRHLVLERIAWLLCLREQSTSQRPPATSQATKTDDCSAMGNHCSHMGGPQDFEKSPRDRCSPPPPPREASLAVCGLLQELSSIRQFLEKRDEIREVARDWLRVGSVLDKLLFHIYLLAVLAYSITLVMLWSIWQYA

[15] = system: Phorbol Ester; assay: LeadProfilingScreen radioligand binding; set-up: species or system mouse
[16] = target: Dopamine D3 (Homo sapiens, UniProt P35462); assay: LeadProfilingScreen radioligand binding
[17] = Multispecies hepatocyte MetID; format: in vitro ADME, human; settings: 4 h incubation with hepatocytes, 10 μM
Method: Metabolites were identified after preincubating each compound at a 10 μM final concentration with 2.5 × 10^5 hepatocytes from human, dog, cynomolgus monkey, and rat in 200 μL of Optiincubate buffer (BioIVT, Westbury, NY). […] After centrifugation, 60 μL of the supernatant was transferred to 60 μL of water for LC-MS analysis. Samples were analyzed using a Thermo Scientific Vanquish UHPLC consisting of a VH-P10-A pump, a VH-A10-A sampler module, a VH-C10-A column compartment, and the VF-D11-A UV detector coupled to an Orbitrap Fusion Lumos instrument with UVPD. A binary solvent system consisting of (A) water with 0.1% formic acid and (B) acetonitrile with 0.1% formic acid was used with an Accucore Vanquish C18+, 2.1 mm × 100 mm, 1.5 μm, UHPLC column maintained at 40 °C. The data generated by data-dependent acquisition via normal acquisition and AcquireX were processed manually with Thermo Scientific FreeStyle and assisted by Compound Discoverer 3.3.1.111 to aid in the structural assignments.

[18] = target: Leukotriene, Cysteinyl CysLT1 (Homo sapiens, UniProt Q9Y271); assay: LeadProfilingScreen radioligand binding
[19] = system: Glutamate, Kainate; assay: LeadProfilingScreen radioligand binding; set-up: species or system rat
[20] = target: Estrogen Erα (Homo sapiens, UniProt P03372); assay: LeadProfilingScreen radioligand binding
Estrogen Erα, sequence (P03372 whole entry): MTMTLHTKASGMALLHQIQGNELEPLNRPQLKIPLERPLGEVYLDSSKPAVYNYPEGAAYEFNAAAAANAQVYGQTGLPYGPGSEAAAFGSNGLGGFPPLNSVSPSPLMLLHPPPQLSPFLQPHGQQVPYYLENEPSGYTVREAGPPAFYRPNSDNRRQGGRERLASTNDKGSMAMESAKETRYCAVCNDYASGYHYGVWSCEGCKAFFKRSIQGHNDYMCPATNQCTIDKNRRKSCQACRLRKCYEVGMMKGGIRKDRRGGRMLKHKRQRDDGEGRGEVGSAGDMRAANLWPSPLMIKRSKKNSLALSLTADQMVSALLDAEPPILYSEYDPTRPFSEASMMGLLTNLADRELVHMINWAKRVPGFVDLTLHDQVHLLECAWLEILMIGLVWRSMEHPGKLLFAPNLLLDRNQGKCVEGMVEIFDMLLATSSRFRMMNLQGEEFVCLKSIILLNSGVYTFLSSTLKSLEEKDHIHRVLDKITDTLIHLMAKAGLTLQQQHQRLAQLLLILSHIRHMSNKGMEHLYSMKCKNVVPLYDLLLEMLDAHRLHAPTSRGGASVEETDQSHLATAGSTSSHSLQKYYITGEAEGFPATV

[21] = Multispecies hepatocyte MetID; format: in vitro ADME, minipig; settings: 4 h incubation with hepatocytes, 10 μM
[22] = target: Androgen (Testosterone) (Homo sapiens, UniProt P10275); assay: LeadProfilingScreen radioligand binding
[23] = target: Adrenergic β1 (Homo sapiens, UniProt P08588); assay: LeadProfilingScreen radioligand binding
Adrenergic β1, sequence (P08588 whole entry): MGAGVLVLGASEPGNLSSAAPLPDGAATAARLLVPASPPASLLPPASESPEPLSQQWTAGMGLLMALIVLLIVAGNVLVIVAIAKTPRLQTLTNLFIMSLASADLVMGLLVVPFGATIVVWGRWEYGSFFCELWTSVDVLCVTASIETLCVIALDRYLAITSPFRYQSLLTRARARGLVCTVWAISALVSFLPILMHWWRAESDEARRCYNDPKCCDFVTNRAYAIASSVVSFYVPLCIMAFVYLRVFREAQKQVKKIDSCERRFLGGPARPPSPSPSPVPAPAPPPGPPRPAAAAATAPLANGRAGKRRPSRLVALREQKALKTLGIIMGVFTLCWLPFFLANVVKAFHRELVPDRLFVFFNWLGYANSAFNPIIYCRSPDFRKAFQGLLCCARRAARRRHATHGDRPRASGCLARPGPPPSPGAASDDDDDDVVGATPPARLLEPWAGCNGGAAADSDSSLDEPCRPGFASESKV

[24] = target: Opiate μ (OP3, MOP) (Homo sapiens, UniProt P35372); assay: LeadProfilingScreen radioligand binding
[25] = target: Glucocorticoid (Homo sapiens, UniProt P04150); assay: LeadProfilingScreen radioligand binding
Glucocorticoid, sequence (P04150 whole entry): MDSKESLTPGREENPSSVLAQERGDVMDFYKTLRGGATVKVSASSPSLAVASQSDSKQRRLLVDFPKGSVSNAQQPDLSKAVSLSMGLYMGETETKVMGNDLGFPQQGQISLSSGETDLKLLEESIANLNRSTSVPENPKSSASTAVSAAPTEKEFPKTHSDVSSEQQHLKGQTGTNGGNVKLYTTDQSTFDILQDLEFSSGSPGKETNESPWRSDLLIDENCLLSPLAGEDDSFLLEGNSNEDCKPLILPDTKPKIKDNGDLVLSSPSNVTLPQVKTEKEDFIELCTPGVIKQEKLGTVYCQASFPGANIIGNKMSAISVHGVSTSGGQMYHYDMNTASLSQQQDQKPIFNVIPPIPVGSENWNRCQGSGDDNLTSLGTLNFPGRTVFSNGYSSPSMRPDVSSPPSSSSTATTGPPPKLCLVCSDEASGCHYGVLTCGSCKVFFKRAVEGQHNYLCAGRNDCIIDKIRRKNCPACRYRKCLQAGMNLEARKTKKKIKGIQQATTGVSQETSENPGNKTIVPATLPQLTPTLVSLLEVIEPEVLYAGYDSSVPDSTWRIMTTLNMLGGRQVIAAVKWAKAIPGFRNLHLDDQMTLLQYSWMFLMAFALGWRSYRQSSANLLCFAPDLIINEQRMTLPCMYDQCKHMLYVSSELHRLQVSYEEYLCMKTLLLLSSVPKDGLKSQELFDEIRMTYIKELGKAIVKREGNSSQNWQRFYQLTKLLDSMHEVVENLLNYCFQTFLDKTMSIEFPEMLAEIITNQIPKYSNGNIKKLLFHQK

[26] = target: Nicotinic Acetylcholine α1, Bungarotoxin (Homo sapiens, UniProt P02708+P07510+Q07001); assay: biochemical; format: binding; settings: read-out: % inhibition at 10 μM
Nicotinic Acetylcholine α1, Bungarotoxin, sequence (P02708 21-457): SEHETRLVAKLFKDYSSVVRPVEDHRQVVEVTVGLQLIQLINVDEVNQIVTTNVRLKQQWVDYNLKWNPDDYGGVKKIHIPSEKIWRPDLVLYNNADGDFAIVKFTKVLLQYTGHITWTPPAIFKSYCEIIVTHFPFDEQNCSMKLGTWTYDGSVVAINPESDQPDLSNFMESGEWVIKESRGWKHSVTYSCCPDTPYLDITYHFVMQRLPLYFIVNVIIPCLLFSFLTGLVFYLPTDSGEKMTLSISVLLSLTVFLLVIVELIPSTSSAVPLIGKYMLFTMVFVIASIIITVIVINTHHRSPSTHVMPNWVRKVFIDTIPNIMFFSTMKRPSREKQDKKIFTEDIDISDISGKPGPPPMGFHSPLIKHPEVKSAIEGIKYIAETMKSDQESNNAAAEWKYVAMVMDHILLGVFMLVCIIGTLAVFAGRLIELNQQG
Nicotinic Acetylcholine α1, Bungarotoxin, sequence (P07510 23-517): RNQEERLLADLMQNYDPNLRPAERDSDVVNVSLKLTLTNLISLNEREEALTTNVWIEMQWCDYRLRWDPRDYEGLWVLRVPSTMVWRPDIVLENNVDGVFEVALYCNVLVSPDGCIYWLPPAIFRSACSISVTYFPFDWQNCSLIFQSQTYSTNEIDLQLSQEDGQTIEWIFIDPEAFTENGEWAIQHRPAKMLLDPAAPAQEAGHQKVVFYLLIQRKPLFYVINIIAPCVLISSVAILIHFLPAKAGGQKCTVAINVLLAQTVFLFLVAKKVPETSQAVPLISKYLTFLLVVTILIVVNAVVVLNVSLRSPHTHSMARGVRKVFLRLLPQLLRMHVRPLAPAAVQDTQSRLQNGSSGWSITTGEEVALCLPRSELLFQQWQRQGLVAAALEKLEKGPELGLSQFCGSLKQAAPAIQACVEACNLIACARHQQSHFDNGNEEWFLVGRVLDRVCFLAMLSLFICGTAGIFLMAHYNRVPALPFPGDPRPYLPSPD
Nicotinic Acetylcholine α1, Bungarotoxin, sequence (Q07001 22-517): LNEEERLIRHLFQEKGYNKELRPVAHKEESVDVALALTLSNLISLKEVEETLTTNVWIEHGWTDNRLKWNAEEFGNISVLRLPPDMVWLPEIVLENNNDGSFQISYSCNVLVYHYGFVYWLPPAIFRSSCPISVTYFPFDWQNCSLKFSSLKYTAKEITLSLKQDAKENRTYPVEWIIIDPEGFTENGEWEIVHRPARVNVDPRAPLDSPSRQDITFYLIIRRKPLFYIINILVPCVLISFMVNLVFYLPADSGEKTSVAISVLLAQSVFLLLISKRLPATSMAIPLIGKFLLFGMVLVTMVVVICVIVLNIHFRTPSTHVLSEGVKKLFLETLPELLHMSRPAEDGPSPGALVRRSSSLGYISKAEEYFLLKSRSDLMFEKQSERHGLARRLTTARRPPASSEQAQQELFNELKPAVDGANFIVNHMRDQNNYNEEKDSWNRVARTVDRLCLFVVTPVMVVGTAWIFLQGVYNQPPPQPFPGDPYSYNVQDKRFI
Nicotinic Acetylcholine α1, Bungarotoxin, sequence (P11230 24-501, further chain): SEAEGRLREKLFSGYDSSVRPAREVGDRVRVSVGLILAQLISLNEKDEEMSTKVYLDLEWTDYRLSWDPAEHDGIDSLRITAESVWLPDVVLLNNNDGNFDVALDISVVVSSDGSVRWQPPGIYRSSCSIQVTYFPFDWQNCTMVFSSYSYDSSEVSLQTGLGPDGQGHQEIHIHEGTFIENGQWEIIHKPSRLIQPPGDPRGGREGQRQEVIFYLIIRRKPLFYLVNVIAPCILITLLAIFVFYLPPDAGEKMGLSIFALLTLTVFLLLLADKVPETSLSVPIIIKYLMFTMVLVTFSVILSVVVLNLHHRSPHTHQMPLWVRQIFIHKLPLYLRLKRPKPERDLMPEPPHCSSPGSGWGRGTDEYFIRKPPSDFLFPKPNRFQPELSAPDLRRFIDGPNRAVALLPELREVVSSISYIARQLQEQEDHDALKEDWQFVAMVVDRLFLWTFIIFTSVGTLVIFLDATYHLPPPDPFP

Structure (SMILES) | inhibition of human sperm hyperactivated motility, incubation [1] [%] | inhibition of human sperm hyperactivated motility, acute [1] [%] | effect on progressive motility of human sperm [1] | effect on total motility of human sperm [1] | inhibition at 10 µM [1] [%] | inhibition at 10 µM [2] [%] | % inhibition at 10 μM [3] [%] | inhibition at 10 µM [4] [%] | inhibition at 10 µM [5] [%] | inhibition at 10 µM [6] [%] | inhibition at 10 µM [7] [%] | inhibition at 10 µM [8] [%] | % inhibition at 10 μM [9] [%] | % inhibition at 10 μM [10] [%] | inhibition at 10 µM [11] [%] | inhibition at 10 µM [12] [%] | inhibition at 10 µM [13] [%] | inhibition at 10 µM [14] [%] | % inhibition at 10 μM [15] [%] | inhibition at 10 µM [16] [%] | other results
Cc1cc(Cl)cc2sc(O[C@H]3CCN(C(=O)CCCS(=O)(=O)c4cccc(Br)c4)C[C@H]3F)nc12 [VU6047606] | 61 | > 70 | without changing | without changing | 71 | 18 | 9 | 11 | -16 | 23 | 9 | -8 | 93 | 1 | 2 | 18 | 13 | -17 | 22 | 19 | % of Parent Related Material, Human [17]: 91.66% and > 82%; inhibition at 10 µM [18]: 2%; % inhibition at 10 μM [19]: -6%; inhibition at 10 µM [20]: 6%; % of Parent Related Material, Pig [21]: 93.66% and > 82%; inhibition at 10 µM [22]: 8%; inhibition at 10 µM [23]: 11%; inhibition at 10 µM [24]: 22%; inhibition at 10 µM [25]: 18%; inhibition at 10 µM [26]: 5%
O=C(c1ccc(OCc2ccc(OC(F)(F)F)cc2)cc1)N1CCN(c2ccc(C(F)(F)F)cn2)CC1 [VU6032735] | 50 | > 70 | without changing | without changing | 76 | -6 | -2 | 14 | -1 | -2 | 1 | -5 | 76 | 0 | 5 | 26 | 7 | -11 | 12 | 3 | % of Parent Related Material, Human [17]: > 98%; inhibition at 10 µM [18]: -3%; % inhibition at 10 μM [19]: -4%; inhibition at 10 µM [20]: 11%; % of Parent Related Material, Pig [21]: > 98%; inhibition at 10 µM [22]: 1%; inhibition at 10 µM [23]: 8%; inhibition at 10 µM [24]: 11%; inhibition at 10 µM [25]: 10%; inhibition at 10 µM [26]: 2%
